One assay deals with HT29 xenografts. The experiment in a line: Global metabolomic analysis of HT29 xenografts. In kind it is in vivo, mouse. As to conditions: 21 consecutive days. As to the method: Metabolomic data acquisition was outsourced to Metabolon, Inc. Samples were prepared using the automated MicroLab STAR® system from Hamilton Company. To remove protein, dissociate small molecules bound to protein or trapped in the precipitated protein matrix, and to recover chemically diverse metabolites, proteins were precipitated with methanol under vigorous shaking for 2 min (Glen Mills GenoGrinder 2000) followed by centrifugation. The resulting extract was divided into five fractions: two for analysis by two separate reverse phase (RP)/UPLC-MS/MS methods with positive ion mode electrospray ionization (ESI), one for analysis by RP/UPLC-MS/MS with negative ion mode ESI, one for analysis by HILIC/UPLC-MS/MS with negative ion mode ESI, and one sample was reserved for backup. Samples were placed briefly on a TurboVap® (Zymark) to remove the organic solvent. All methods utilized a Waters ACQUITY ultra-performance liquid chromatography (UPLC) and a Thermo Scientific Q-Exactive high resolution/accurate mass spectrometer interfaced with a heated electrospray ionization (HESI-II) source and Orbitrap mass analyzer operated at 35,000 mass resolution. The sample extract was dried then reconstituted in solvents compatible to each of the four methods. Each reconstitution solvent contained a series of standards at fixed concentrations to ensure injection and chromatographic consistency. One aliquot was analyzed using acidic positive ion conditions, chromatographically optimized for more hydrophilic compounds. […] Another aliquot was also analyzed using acidic positive ion conditions, however it was chromatographically optimized for more hydrophobic compounds. […] Another aliquot was analyzed using basic negative ion optimized conditions using a separate dedicated C18 column. […] The fourth aliquot was analyzed via negative ionization following elution from a HILIC column (Waters UPLC BEH Amide 2.1×150 mm, 1.7 μm) using a gradient consisting of water and acetonitrile with 10 mM Ammonium Formate, pH 10.8. […] Peaks were quantified using area-under-the-curve. […]

The next assay deals with Colo-205 xenografts. The experiment in a line: Colo-205 xenograft 10-day exposure study. The following applies: 75 mg/kg per day, 10 days. In kind it is in vivo, mouse.
The subject of a further assay is HCC1806 cells. The experiment in a line: Immunoblot of pS6 and pERK in HCC1806 cells. It counts as cell-based, human. As to conditions: 25 μM, 48 hrs. As to the method: For immunoreactivity studies, tissue samples were diluted to 100 mg/mL in lysis buffer (#7018s, Cell Signaling Technology) and subsequently homogenized, sonicated, and spun at 3.5K RPM for 1 min. Lysate samples were then screened against an array of target-specific capture antibodies using PathScan Intracellular Signaling Array Kits (#7323, Cell Signaling Technology) in accordance with the manufacturer's instructions and developed using HyBlot CL autoradiography film (# e3012, Denville Scientific Inc.). Processed films were digitized using an Epson Perfection V600 Photo scanner and the relative pixel intensities for each blot quantified using the image processing software ImageJ. Complementary western blot studies were performed by loading 20-40 μg of protein into 7.5-12% SDS PAGE gels, […]. Membranes were blocked overnight at 4° C. in trisbuffered saline 0.1% Tween-20 (TBST) containing 5% w/v nonfat dry milk powder and subsequently incubated with antibodies to p-ERK 1/2 Thr202/Tyr204 (Cell Signaling, 4370), pS6 (Cell Signaling, #4858) LC3B, (anti LC3B, Cell signaling 2775), or b-tubulin (Novus Biologicals, NB600-936); Membrane chemiluminescence was imaged on a Xenogen IVIS 200 system.
(In western blotting, separated proteins are transferred to a membrane and probed.)

Another assay deals with HCC1806 and HT29 cells. Nature of the assay: Autophagic flux (CYTO-ID). In kind it is cell-based, human. As for the experimental part:
Autophagic flux was measure using the CYTO-ID autophagy detection kit (Enzo Life Sciences ENZ-51031). HCC1806 and HT29 cells were seeded in 96 well plates the day before the experiment. […] Following treatment, cells were gently washed with assay buffer followed by addition of the dual color detection solution and incubation at 37° C. for 30 min. The plate was analyzed on a fluorescence microplane reader (BioTek Synergy 4).

Another assay concerns HCC1806 xenografts. The experiment in a line: HCC1806 xenograft 10-day exposure study. In kind it is in vivo, mouse. As to conditions: 75 mg/kg per day, 10 days. As for the experimental part:
Tissues were sectioned (5 μm thickness) and stained for pS6 (Cell Signaling, #4858) and caspase 3 (Cell Signaling #9661). Tissue slides were imaged at 20× magnification.
For in vivo studies, cell-line xenograft tumors were propagated in 6-week old, female athymic nude mice from immortalized cell lines. For HCC-1806 (10×10^6 cells), HCT-116 (5×10^6), and HT29 (10×10^6) cells were injected. Palpable tumors were typically visible within 2-3 weeks. For imaging studies (HCC-1806), tumors were propagated to approximately 500 mm^3. For treatment studies (HCT-116, HT29) tumors were propagated to approximately 200 mm^3 prior to therapy and were randomly assigned into treated and untreated cohorts. For generating the PDX, primary tumor tissue was obtained form a patient at Vanderbilt University Medical Center under an IRB approved protocol. The tumor tissue was genotyped within the VANTAGE core facility. Xenograft was generated as previously described 41. Briefly, tumor tissues were sectioned into approximately 125 cubic millimeter pieces then implanted subcutaneously without further manipulation. […] Tumor volumes were measured manually using calipers every third day and quantified using the formula V=W·L·(H/2).

From patent US10793514B2, “Glutamine transport inhibitors and methods for treating cancer” (Vanderbilt University, priority 2016, dated 2020) come the findings set out here.

On to `Cc1cccc(COc2ccccc2CN(CCC(N)C(=O)O)Cc2ccccc2OCc2cccc(C)c2)c1` (stereo not drawn) [Compound V-9302], for which, in the assay on HT29 xenografts, the “creatine-phosphate levels in treated tumors” value is “significantly reduced”; the “oxidized glutathione (GSSG) and 4-hydroxy-nonenal-glutathione in tumors” value is “significantly elevated”; the “reduction of N-acetylserine in treated tumors” value is given as “greater than 4 fold”. Besides, in the assay on Colo-205 xenografts, the “tumor BRDU uptake” value is given as “decreased tumor BRDU uptake”; the tumor growth entry is listed as “tumor growth arrest”; the tumor response markers entry was “elevated LC3B, cleaved caspase 3 and decreased pAKT (Ser473 and Thr308), as well as increased cleaved PARP and decreased and pERK”. For the same molecule, in the assay on HCC1806 cells, the pERK entry is “modest decrease in pERK” and the pS6 entry is given as “significantly decreased pS6”. Also, the “number of autophagic vesicles” value with HCC1806 and HT29 cells (HT29 cells, combined with chloroquine (10 μM)) was “further increased the number of autophagic vesicles”. Also, the autophagic flux entry with HCC1806 and HT29 cells (single agent) is reported as “elevated with V-9302 exposure in a concentration-dependent manner”. Besides, in the assay on HCC1806 xenografts, the tumor growth entry is “tumor growth arrest”; the tumor response markers result is “elevated LC3B and cleaved caspase 3, along with decreased pAKT (Ser473) and pS6”.
